Results taken from paper PMC8308524, “Interaction between DNA, Albumin and Apo-Transferrin and Iridium(III) Complexes with Phosphines Derived from Fluoroquinolones as a Potent Anticancer Drug” (Pharmaceuticals, 2021).

Key:
[1] = target: T1, apo-transferrin (apo-Tf) (Homo sapiens, UniProt P02787); assay: Fluorescence quenching of apo-transferrin; format: binding; conditions: apo-Tf 3.6 × 10^−6 M, 50 mM phosphate buffer pH 7.4, excitation 295 nm, Stern–Volmer
T1 construct: purchased Sigma–Aldrich (Hamburg, Germany)
Protocol: A solution of apo-Tf was titrated with increasing concentrations of all the tested compounds, and the fluorescence intensity of apo-Tf was monitored spectrophotometrically (Figure 9A; Supplementary Materials, Figures S6 and S7). At the same time, Ksv values were determined from Stern–Volmer plots (Figure 9B, Table 4).
(§1) In order to confirm the quenching mechanism, the fluorescence quenching was analyzed according to Stern–Volmer in Equation (2):(2) I0/I=1+KsvC where I0 and I are the fluorescence intensities in the absence and presence of the quencher, respectively, KSV is the Stern–Volmer quenching constant, and [C] is the concentration of the quencher, respectively.
Apo-transferrin (apo-Tf) solution was prepared by dissolving the solid protein in 50 mM of phosphate-buffered saline (PBS) (pH = 7.4), C (apo-Tf) ≈ 3,6 × 10^− 6 M. The solution of the Tf was titrated in different molar ratios (0.5, 1, 2, 3, 4, 5, 6, 7, 8, 9, and 10) by IrPCp, IrPNr, IrPSf, IrPLm with corresponding phosphines (dissolved in DMSO) and incubated for 1h with any portion from each of the investigated compounds. The final volume of DMSO was 2% in each sample. The excitation wavelength was equal to 295 nm. The spectra of circular dichroism were recorded using a spectropolarimeter JASCO J-715 (CD and MCD).

[2] = target: CT DNA; assay: Competitive fluorescence quenching of CT DNA-DAPI (minor groove binding); set-up: species or system calf; unit not given here; conditions: extended Stern–Volmer plot
From the text: It is well known that the cytotoxic activity of various drugs (e.g., fluoroquinolones) depends on interaction with DNA [1]. […] Several well-known DNA binding dyes with well-established binding modes were used: ethidium bromide (EB; intercalation), 4′,6-diamidino-2-phenylindole (DAPI; binding to a minor groove), and methyl green (MG; binding to a major groove). The compounds that can bind to DNA more strongly than the above-mentioned binding dyes (EB, DAPI, or MG) reduce the DNA-binding dye emission due to the replacement of dye. The emission spectra of the CT DNA-binding dye complex were measured at different concentrations of the investigated compounds, (Figure 2; Supplementary Materials, Figures S1–S4).
Furthermore, we conducted a similar competitive experiment using DAPI Figure 3, and Figures S2 and S3 in Supplementary Materials. […] The displacement of bound DAPI from its binding site on CT DNA is much stronger than when EB is used. In order to confirm the quenching mechanism, the fluorescence quenching was analyzed according to Stern–Volmer equations (Figure 3A) and KDSV (dynamic quenching constant) values, which are presented in Figure 3B. Based on Stern–Volmer plots (Figure 3A), the strength of CT DNA-DAPI fluorescence quenching formed the following order: IrPSf > IrPCp > IrPNr > IrPLm.
The stock solution was prepared by dissolving of the calf thymus (CT DNA) in 50 mM phosphate buffer saline (PBS) (pH = 7.4). The CT DNA concentration (C = 5 × 10^−5 M) was determined by a UV spectrophotometer using the molar absorption coefficient […] at 258 nm. The stock solution was stored at 4 °C and used for > 6 days. The luminescent complexes of CT DNA with EB (ethidium bromide), DAPI (4′,6-diamidyno−2-fenyloindol), and MG (methyl green) were prepared by mixing the substrates in the equimolar ratio (CCT DNA-fluorescent dye = 5 × 10^−5 M; 50 mM of the phosphate buffer at pH = 7.4). The solution of the CT DNA fluorescent dye system was titrated in different molar ratios (0.5, 1, 2, 3, 4, 5, 6, 7, 8, 9, and 10) with the tested substances (dissolved in DMSO) and incubated for 1 h for each portion of the investigated compounds. The final concentration of DMSO was 2% in each sample. Photoluminescence measurements were recorded at 298 K using a Cary Eclipse Fluorescence Spectrophotometer. The excitation wavelength was 510 nm for the CT DNA-EB complex, 358 nm for the CT DNA-DAPI complex, and 633 nm for the CT DNA-MG complex. The Inner Filter Effect was considered and the corrected intensity of the emission band was calculated using Equation (1), where: Abs—absorbance at analyzed emission wavelength; If—uncorrected emission intensity. (1) Icor=If 2.303 Abs/ 1−10^Abs
as §1
In same case, it was clearly observed that both static and dynamic quenching occur simultaneously where a nonlinear curve is observed. In such cases, extended Stern–Volmer plots can be used to describe the new situation with the following Equation (3). (3) 1−(I/I0)/C=KDSV(I/I0) +V where I0 and I are the fluorescence intensities in the absence and presence of the quencher, respectively; KDSV is the dynamic quenching constant; [C] is the concentration of the quencher, and V is the volume of the sphere of action. We drew the plots of ([1 − (I/I0)]/[C]) versus I/I0. KDSV is the slope of the plot and the static quenching constant V is calculated from the intercept of the plot.

[3] = tested on: pBR322 plasmid DNA; assay: DNA strand break analysis by agarose gel electrophoresis; format: biochemical; conditions: pBR322, 10 to 500 μM, 1 h, 4 h, 24 h
From the text: Since intercalation usually results in relatively large changes in the double helix structure, we assumed that all iridium(III) complexes cause severe DNA cleavage. The binding ability of iridium(III) complexes with another DNA model—pBR322 plasmid DNA, was studied by gel electrophoresis as a target. The degree of plasmid degradation, which is naturally present in a superhelical form (form I), to determine the ability of the compounds to induce single- and/or double-strand damage of the DNA was checked. This process can lead to the formation of the relaxed/nicked (form II) and linear (form III) forms. The degree of DNA degradation was determined in a wide range of the tested compounds’ concentrations (from 10 to 500 μM) at three different incubation times: 1 h, 4 h, and 24 h (Figure 4E1–E3).
It was proven by cyclic voltamperometry, and fluorescence spectroscopy that the studied herein Ir(III) compounds can generate high levels of ROS, therefore the effect of additional H2O2 on the overall ROS production and the associated DNA damages caused by this radical pathway. Furthermore, to confirm the generation of particular types of ROS involved in plasmid degradation, the experiment using DMSO (effective scavenger of ^•OH), SOD (effective scavenger of O2^•−), [50] and NaN3 (effective scavenger of ^1O2) was performed. In order to exclude the effect of the hydrogen peroxide influence on plasmid DNA degradation, we performed an additional gel electrophoresis for H2O2 in different concentrations (Supplementary Materials, Figure S8).
The ability of IrPCp, IrPNr, IrPSf, IrPLm, and phosphine ligands to induce single- or double-strand breaks in plasmid DNA was tested with the pBR322 plasmid (C = 0.5 mg/mL). All compounds were dissolved in DMF; the concentration was kept constant (10% by volume) in the final solution with/without hydrogen peroxide (H2O2, C = 50 μM), superoxide dismutase (SOD, C = 0.62 μM), dimethyl sulfoxide (DMSO, C = 1.4 mM), or sodium azide (NaN3, C = 40 mM). The reaction was also monitored after the addition of various groove binders: methyl green (MG, C = 10 mg/mL), and 4′,6-diamidino-2-phenylindole (DAPI, C = 5 mg/mL). After incubation for 1 h at 37°C, reaction mixtures (20 μL) were mixed with 3 μL of loading buffer (bromophenol blue in 30% glycerol) and loaded on 1% agarose gels, containing EB, in TBE buffer (90 Mm Tris–borate, […], pH = 8.0). Gel electrophoresis was performed at a constant voltage of 100V (4 Vcm-1) for 60 min. The gel was photographed and processed with a Digital Imaging System (Syngen Biotech, Wroclaw, Poland).

[4] = target: T2, human serum albumin (HSA) (Homo sapiens, UniProt P02768); assay: Fluorescence quenching of human serum albumin; format: binding; conditions: 50 mM phosphate buffer pH 7.4, excitation 295 nm, Stern–Volmer
T2 construct: purchased Sigma–Aldrich (Hamburg, Germany)
From the text: Interest in studying the interaction of metal ions and their compounds with blood plasma proteins, especially with serum albumin (HSA), the most abundant protein in plasma involved in the transport of drugs through the bloodstream, is increasing. This molecule has two main binding sites: site I is located in subdomain IIA and site II is located in subdomain IIIA. […] Changes in the appearance of the Trp-214 residue emission band in HSA, in the presence of the tested compounds, may indicate changes in the protein’s conformation, the association of its subunits or denaturation, or the binding of the compound to protein [53, 56].
as §1
Human serum albumin (HSA) was dissolved in 50 mM phosphate buffer saline (PBS) (pH = 7.4), C (HSA) ≈ 5 × 10^− 5 M. The solution of the HSA was titrated at different molar ratios (0.5, 1, 2, 3, 4, 5, 6, 7, 8, 9 and 10) by IrPCp, IrPNr, IrPSf, IrPLm and phosphine ligands (dissolved in DMSO) and incubated for 1 h with any portion from each of the investigated compounds. The final volume of DMSO was 2% in each sample. Afterward, substances were incubated with HSA solution for 1h at room temperature. The excitation wavelength was equal to 295 nm.

T2 sequence (P02768 25-609): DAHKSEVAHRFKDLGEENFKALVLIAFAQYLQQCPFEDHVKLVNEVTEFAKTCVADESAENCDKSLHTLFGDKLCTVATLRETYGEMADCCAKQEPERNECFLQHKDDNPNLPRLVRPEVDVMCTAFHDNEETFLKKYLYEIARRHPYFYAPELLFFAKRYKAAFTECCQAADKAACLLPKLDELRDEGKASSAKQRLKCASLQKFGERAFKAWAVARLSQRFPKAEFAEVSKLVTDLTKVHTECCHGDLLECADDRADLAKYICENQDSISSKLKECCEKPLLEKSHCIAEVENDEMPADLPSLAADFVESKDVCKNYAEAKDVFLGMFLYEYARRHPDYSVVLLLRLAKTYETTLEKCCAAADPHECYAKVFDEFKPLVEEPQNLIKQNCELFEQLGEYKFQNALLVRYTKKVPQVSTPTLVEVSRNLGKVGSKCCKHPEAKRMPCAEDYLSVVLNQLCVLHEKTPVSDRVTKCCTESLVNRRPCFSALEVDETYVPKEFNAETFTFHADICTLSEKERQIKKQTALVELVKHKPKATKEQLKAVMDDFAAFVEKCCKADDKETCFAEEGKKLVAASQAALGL
T1 sequence (P02787 20-698): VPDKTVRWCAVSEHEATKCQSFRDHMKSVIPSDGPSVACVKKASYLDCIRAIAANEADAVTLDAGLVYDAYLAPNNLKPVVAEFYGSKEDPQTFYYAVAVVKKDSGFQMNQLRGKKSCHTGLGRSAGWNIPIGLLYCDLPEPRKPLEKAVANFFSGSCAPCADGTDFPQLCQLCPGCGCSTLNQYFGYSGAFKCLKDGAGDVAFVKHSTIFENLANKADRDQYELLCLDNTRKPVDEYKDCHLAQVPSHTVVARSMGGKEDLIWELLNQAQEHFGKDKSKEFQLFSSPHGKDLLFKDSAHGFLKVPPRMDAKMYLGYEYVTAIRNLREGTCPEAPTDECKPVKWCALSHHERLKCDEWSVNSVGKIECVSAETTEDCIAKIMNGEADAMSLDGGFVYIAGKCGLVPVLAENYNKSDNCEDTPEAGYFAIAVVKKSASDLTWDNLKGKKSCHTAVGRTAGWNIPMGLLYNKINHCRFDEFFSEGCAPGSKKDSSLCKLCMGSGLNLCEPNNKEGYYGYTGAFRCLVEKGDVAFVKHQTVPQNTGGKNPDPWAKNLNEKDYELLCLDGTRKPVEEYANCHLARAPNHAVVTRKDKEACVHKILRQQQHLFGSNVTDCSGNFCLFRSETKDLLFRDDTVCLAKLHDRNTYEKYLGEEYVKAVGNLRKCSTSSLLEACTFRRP

## CCn1cc(C(=O)O)c(=O)c2cc(F)c(N3CCN(C[P+](c4ccccc4)(c4ccccc4)[Ir]([Cl])[Cl])C(C)C3)c(F)c21.Cc1c(C)c(C)[c-](C)c1C (racemic) [IrPLm, Ir(η^5-Cp*)Cl2PLm]
[1]
  Ksv (apo-Tf fluorescence quenching): 19900 M⁻¹
[2]
  KDSV (dynamic quenching constant): 2.19×10^3
  V (static quenching constant, volume of the sphere of action): 1.45×10^3
[3]
  double-strand plasmid damage (formation of linear form III): not presumably capable of double-strand plasmid damage
[4]
  Ksv (HSA fluorescence quenching): 5.06e+06 M⁻¹

## CCn1cc(C(=O)O)c(=O)c2cc(F)c(N3CCN(CP(c4ccccc4)c4ccccc4)CC3)cc21 [PNr]
[1]
  Ksv (apo-Tf fluorescence quenching): 45.6 M⁻¹

## CC1CN(c2c(F)c(N)c3c(=O)c(C(=O)O)cn(C4CC4)c3c2F)CC(C)N1C[P+](c1ccccc1)(c1ccccc1)[Ir]([Cl])[Cl].Cc1c(C)c(C)[c-](C)c1C (stereo not drawn) [IrPSf, Ir(η^5-Cp*)Cl2PSf]
[1]
  Ksv (apo-Tf fluorescence quenching): 13200 M⁻¹
[2]
  KDSV (dynamic quenching constant): 3.62×10^3
  V (static quenching constant, volume of the sphere of action): 2.42×10^3
[3]
  double-strand plasmid damage (formation of linear form III): not presumably capable of double-strand plasmid damage
[4]
  Ksv (HSA fluorescence quenching): 5.67e+06 M⁻¹

## CC1CN(c2c(F)c(N)c3c(=O)c(C(=O)O)cn(C4CC4)c3c2F)CC(C)N1CP(c1ccccc1)c1ccccc1 (stereo not drawn) [PSf]
[1]
  Ksv (apo-Tf fluorescence quenching): 11000 M⁻¹

## CCn1cc(C(=O)O)c(=O)c2cc(F)c(N3CCN(C[P+](c4ccccc4)(c4ccccc4)[Ir]([Cl])[Cl])CC3)cc21.Cc1c(C)c(C)[c-](C)c1C [IrPNr, Ir(η^5-Cp*)Cl2PNr]
[1]
  Ksv (apo-Tf fluorescence quenching): 20200 M⁻¹
[2]
  KDSV (dynamic quenching constant): 1.72×10^3
  V (static quenching constant, volume of the sphere of action): 1.13×10^3
[3]
  double-strand plasmid damage (formation of linear form III): not presumably capable of double-strand plasmid damage
[4]
  Ksv (HSA fluorescence quenching): 698000 M⁻¹

## CCn1cc(C(=O)O)c(=O)c2cc(F)c(N3CCN(CP(c4ccccc4)c4ccccc4)C(C)C3)c(F)c21 (stereo not drawn) [PLm]
[1]
  Ksv (apo-Tf fluorescence quenching): 152 M⁻¹
[4]
  Ksv (HSA fluorescence quenching): 5.3 M⁻¹

## Cc1c(C)c(C)[c-](C)c1C.O=C(O)c1cn(C2CC2)c2cc(N3CCN(C[P+](c4ccccc4)(c4ccccc4)[Ir]([Cl])[Cl])CC3)c(F)cc2c1=O [IrPCp, Ir(η^5-Cp*)Cl2PCp]
[1]
  Ksv (apo-Tf fluorescence quenching): 21800 M⁻¹
[2]
  KDSV (dynamic quenching constant): 3.21×10^3
  V (static quenching constant, volume of the sphere of action): 2.21×10^3
[3]
  double-strand plasmid damage (formation of linear form III): not presumably capable of double-strand plasmid damage
[4]
  Ksv (HSA fluorescence quenching): 2.08e+06 M⁻¹
